Source: patent publication US8105608B2, “Method of treatment using ligand-immunogen conjugates” (Purdue Research Foundation, priority 2000, dated 2012)

System: M109 cells
Experiment: Survival of mice with M109 cells implanted intraperitoneally close to the liver
Format: in vivo
Details: Example 16; folate-FITC 1500 nmoles/kg, IFN-α 7.5×10^4 units/day days 7, 8, 9, 11, 14; FITC-KLH immunized; 5 mice per group; PBS 17 days
Method: Furthermore, in an effort to reduce the time required to obtain long-term survival data, the tumor cells were implanted intraperitoneally close to the liver. […] Aminofluorescein was injected along with the various cytokine combinations as a control because this compound is not linked to folate and will not retarget anti-fluorescein antibodies to tumor cells.
Each mouse was injected with 0.2 ml of a 1:10 dilution of the antibody stock solution on days 1, 4, 9, and 14 after tumor implantation to achieve NK cell depletion.
Additionally, the animals were immunized with FITC-labeled keyhole limpit hemocyanin (KLH) rather than FITC-labeled BSA.
Aminofluorescein was injected along with the IL-2, IFN-α cytokine combination as a control because this compound is not linked to folate and will not retarget anti-fluorescein antibodies to tumor cells.
Additionally, the animals were immunized with DNP-labeled keyhole limpit hemocyanin (KLH).
Additionally, the animals (5 mice per group) were immunized with FITC-labeled keyhole limpit hemocyanin (KLH) rather than FITC-labeled BSA.

Substance: IFN-α
- median survival time: 17 days
